Patent US7514068B2, “Biphenyl-pyrazolecarboxamide compounds” (Concert Pharmaceuticals Inc., priority 2005, dated 2009)
Where two headings read alike, the source gives them in different places.

Experiments:
[1] = RIO-North American trial, cited from earlier work
[2] = rat liver microsome assays; cited from earlier work
[3] = RIO-North American Phase III clinical trial, adverse-event associated discontinuations; format: in vivo, human; settings: 20 mg dose
From the text: In reports of these clinical trials Compound 1 was described as having a good safety profile with relatively low increases in serious adverse events across the different dose groups tested. However, it is clearly less well tolerated in higher doses, with the more common side effects including depression, anxiety, and irritability, and in some but not all studies, significant amounts of nausea. Even in a highly motivated Phase III clinical trial population, a considerable number of dose-dependent discontinuations occurred.

CB1 vs. CB2 receptor = settings: in vitro receptor binding studies; cited from earlier work
animal models = settings: cited from earlier work
[4] = tested on: wide range of other neurological receptors; settings: in vitro receptor binding studies; cited from earlier work
rats = settings: cited from earlier work

Cc1c(C(=O)NN2CCCCC2)nn(-c2ccc(Cl)cc2Cl)c1-c1ccc(Cl)cc1 [Compound 1, N-(piperidin-1-yl)-5-(4-chlorophenyl)-1-(2,4-dichlorophenyl)-4-methyl-1H-pyrazole-3-carboxamide]
first year adverse-event associated discontinuations ([1]; 5 mg dose): 9.4% | first year adverse-event associated discontinuations ([1]; 20 mg dose): 12.8% | sites of metabolism [2]: hydroxylation only on the pyrazole 3-substituent | increase of adverse-event associated discontinuations versus placebo [3]: 77%

CCc1c(C(=O)NN2CCCCC2)nn(-c2ccc(Cl)cc2Cl)c1-c1ccc(Br)cc1 [Compound 1A, 5-(4-bromophenyl)-1-(2,4-dichlorophenyl)-4-ethyl-N-(1-piperidinyl)-1H-pyrazole-3-carboxamide]
selectivity for the CB1 vs. CB2 receptor (CB1 vs. CB2 receptor): highly selective | duration of action compared with Compound 1 (animal models): longer | affinity for a wide range of other neurological receptors [4]: little affinity | in vivo effects of cannabinoid agonists (hypothermia, ring immobility, increased tail flick latency) (rats): reverse
